According to patent US10052331B2, “3-(3H-imidazo[4,5-C]pyridin-2-yl)-1H-pyrazolo[3,4-C]pyridine and therapeutic uses thereof” (Samumed, LLC, priority 2014, dated 2018):

Key:
[1] = tested on: primary human fibroblasts derived from IPF patients (LL29 cells); test: Inhibition of fibrotic process: αSMA staining in TGF-β1-treated primary human fibroblasts from IPF patients (LL29 cells); type: cell-based; settings: Fibroblast, 96 h, LL29 cells treated with TGF-β1 (20 ng/mL), 4 days, 11-point dose-response from 10 μM to 1.87 nM, read-out: Inhibition of fibrosis EC50
In short: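 LL29 IPF lung fibroblasts in F12 with 1% FBS, compound (11-point, 10 μM to 1.87 nM, 0.1% DMSO) plus TGF-β1 20 ng/mL for 4 days at 37° C. αSMA-positive % of SYTOX-negative cells by immunofluorescence imaging, normalized to TGF-β1 wells; EC50 from non-linear regression of triplicates.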

[2] = tested on: Wnt activity (Wnt-responsive Sp5 promoter-luciferase reporter in SW480 cells); test: Wnt activity screening assay: Sp5-Luc reporter gene in SW480 colon carcinoma cells; type: cell-based; settings: Homo sapiens
In short: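 IC50 values come from variable-slope four-parameter fits of luciferase signal normalized to DMSO wells. Stable Sp5-Luc reporter SW480 colon carcinoma cells were exposed to compounds in a 3-fold dilution series (source plates from 10 mM stock) for forty-two hours at 37 °C.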

Row | IC50 [2] [nM] | SMILES | EC50 [1] [nM]
1 | 6.5 | CCCC(=O)Nc1cncc(-c2cc3c(-c4nc5c(-c6ccc(C)s6)cncc5[nH]4)n[nH]c3cn2)c1 [Compound 355, N-(5-(3-(7-(5-Methylthiophen-2-yl)-3H-imidazo[4,5-c]pyridin-2-yl)-1H-pyrazolo[3,4-c]pyridin-5-yl)pyridin-3-yl)butyramide] | 148
2 | 17.6 | CCCCC(=O)Nc1cncc(-c2cc3c(-c4nc5c(-c6ccc(C)s6)cncc5[nH]4)n[nH]c3cn2)c1 [Compound 356, N-(5-(3-(7-(5-Methylthiophen-2-yl)-3H-imidazo[4,5-c]pyridin-2-yl)-1H-pyrazolo[3,4-c]pyridin-5-yl)pyridin-3-yl)pentanamide] | 110
3 | 33.5 | Cc1ccc(-c2cncc3[nH]c(-c4n[nH]c5cnc(-c6cncc(NC(=O)C7CCCC7)c6)cc45)nc23)s1 [Compound 359, N-(5-(3-(7-(5-Methylthiophen-2-yl)-3H-imidazo[4,5-c]pyridin-2-yl)-1H-pyrazolo[3,4-c]pyridin-5-yl)pyridin-3-yl)cyclopentanecarboxamide] | 689
4 | 46.7 | Cc1ccncc1-c1cc2c(-c3nc4c(-c5cc(F)cc(CNS(C)(=O)=O)c5)cncc4[nH]3)n[nH]c2cn1 [Compound 395, N-(3-Fluoro-5-(2-(5-(4-methylpyridin-3-yl)-1H-pyrazolo[3,4-c]pyridin-3-yl)-3H-imidazo[4,5-c]pyridin-7-yl)benzyl)methanesulfonamide] | ≤ 9
5 | 774 | CS(=O)(=O)NCc1cc(F)cc(-c2cncc3[nH]c(-c4n[nH]c5cnc(-c6cncc(NC(=O)c7ccccc7)c6)cc45)nc23)c1 [Compound 401, N-(5-(3-(7-(3-Fluoro-5-(methylsulfonamidomethyl)phenyl)-3H-imidazo[4,5-c]pyridin-2-yl)-1H-pyrazolo[3,4-c]pyridin-5-yl)pyridin-3-yl)benzamide] | ≥ 9990
6 | 29.6 | CS(=O)(=O)NCc1cc(F)cc(-c2cncc3[nH]c(-c4n[nH]c5cnc(-c6cncc(NC(=O)C7CCC7)c6)cc45)nc23)c1 [Compound 410, N-(5-(3-(7-(3-Fluoro-5-(methylsulfonamidomethyl)phenyl)-3H-imidazo[4,5-c]pyridin-2-yl)-1H-pyrazolo[3,4-c]pyridin-5-yl)pyridin-3-yl)cyclobutanecarboxamide] | 475
7 | 58 | CS(=O)(=O)NCc1cc(F)cc(-c2cncc3[nH]c(-c4n[nH]c5cnc(-c6cncc(CNCc7ccccc7)c6)cc45)nc23)c1 [Compound 413, N-(3-(2-(5-(5-((Benzylamino)methyl)pyridin-3-yl)-1H-pyrazolo[3,4-c]pyridin-3-yl)-3H-imidazo[4,5-c]pyridin-7-yl)-5-fluorobenzyl)methanesulfonamide] | ≥ 9990
8 | > 10000 | CS(=O)(=O)NCc1cc(F)cc(-c2cncc3[nH]c(-c4n[nH]c5cnc(-c6cncnc6)cc45)nc23)c1 [Compound 416, N-(3-Fluoro-5-(2-(5-(pyrimidin-5-yl)-1H-pyrazolo[3,4-c]pyridin-3-yl)-3H-imidazo[4,5-c]pyridin-7-yl)benzyl)methanesulfonamide] | ≥ 9990
9 | 482 | CN(C)CCNc1cc(F)cc(-c2cncc3[nH]c(-c4n[nH]c5cnc(-c6cncc(N(C)C)c6)cc45)nc23)c1 [Compound 423] | 2030
10 | 175 | CC(C)Nc1cncc(-c2cc3c(-c4nc5c(-c6cc(F)cc(NCCN(C)C)c6)cncc5[nH]4)n[nH]c3cn2)c1 [Compound 428, N^1-(3-Fluoro-5-(2-(5-(5-(isopropylamino)pyridin-3-yl)-1H-pyrazolo[3,4-c]pyridin-3-yl)-3H-imidazo[4,5-c]pyridin-7-yl)phenyl)-N2,N2-dimethylethane-1,2-diamine] | ≥ 9990
11 | 227 | CCCCC(=O)Nc1cncc(-c2cc3c(-c4nc5c(-c6cc(F)cc(NCCN(C)C)c6)cncc5[nH]4)n[nH]c3cn2)c1 [Compound 434, N-(5-(3-(7-(3-((2-(Dimethylamino)ethyl)amino)-5-fluorophenyl)-3H-imidazo[4,5-c]pyridin-2-yl)-1H-pyrazolo[3,4-c]pyridin-5-yl)pyridin-3-yl)pentanamide] | 8260
12 | 1210 | CN(C)CCNc1cc(F)cc(-c2cncc3[nH]c(-c4n[nH]c5cnc(-c6cncc(CNCC7CCCC7)c6)cc45)nc23)c1 [Compound 440, N^1-(3-(2-(5-(5-(((Cyclopentylmethyl)amino)methyl)pyridin-3-yl)-1H-pyrazolo[3,4-c]pyridin-3-yl)-3H-imidazo[4,5-c]pyridin-7-yl)-5-fluorophenyl)-N2,N2-dimethylethane-1,2-diamine] | ≤ 9
13 | > 10000 | Fc1cccc(-c2cncc3[nH]c(-c4n[nH]c5cnc(C6CCNCC6)cc45)nc23)c1 [Compound 885, 3-(7-(3-Fluorophenyl)-3H-imidazo[4,5-c]pyridin-2-yl)-5-(piperidin-4-yl)-1H-pyrazolo[3,4-c]pyridine] | ≥ 9990
14 | 552 | Cc1ncc(-c2cc3c(-c4nc5c(-c6cccc(F)c6)cncc5[nH]4)n[nH]c3cn2)n1C [Compound 889, 5-(1,2-Dimethyl-1H-imidazol-5-yl)-3-(7-(3-fluorophenyl)-3H-imidazo[4,5-c]pyridin-2-yl)-1H-pyrazolo[3,4-c]pyridine] | 46
15 | > 10000 | O=C(CC1CCNCC1)Nc1cncc(-c2cc3c(-c4nc5c(-c6cccc(F)c6)cncc5[nH]4)n[nH]c3cn2)c1 [Compound 893, N-(5-(3-(7-(3-Fluorophenyl)-3H-imidazo[4,5-c]pyridin-2-yl)-1H-pyrazolo[3,4-c]pyridin-5-yl)pyridin-3-yl)-2-(piperidin-4-yl)acetamide] | ≥ 9990
16 | 59 | Oc1cncc(-c2cc3c(-c4nc5c(-c6cccc(F)c6)cncc5[nH]4)n[nH]c3cn2)c1 [Compound 897, 5-(3-(7-(3-Fluorophenyl)-3H-imidazo[4,5-c]pyridin-2-yl)-1H-pyrazolo[3,4-c]pyridin-5-yl)pyridin-3-ol] | 32
17 | 65 | Fc1cccc(-c2cncc3[nH]c(-c4n[nH]c5cnc(-c6ccncc6)cc45)nc23)c1 [Compound 900, 3-(7-(3-Fluorophenyl)-3H-imidazo[4,5-c]pyridin-2-yl)-5-(pyridin-4-yl)-1H-pyrazolo[3,4-c]pyridine] | ≤ 9
18 | 805 | Fc1cccc(-c2cncc3[nH]c(-c4n[nH]c5cnc(-c6ccccn6)cc45)nc23)c1 [Compound 901, 3-(7-(3-Fluorophenyl)-3H-imidazo[4,5-c]pyridin-2-yl)-5-(pyridin-2-yl)-1H-pyrazolo[3,4-c]pyridine] | 584
19 | > 10000 | CC(C)CC(=O)Nc1cncc(-c2cc3c(-c4nc5c(-c6cc(O)cc(F)c6)cncc5[nH]4)n[nH]c3cn2)c1 [Compound 1280, N-(5-(3-(7-(3-Fluoro-5-hydroxyphenyl)-3H-imidazo[4,5-c]pyridin-2-yl)-1H-pyrazolo[3,4-c]pyridin-5-yl)pyridin-3-yl)-3-methylbutanamide] | ≤ 9
20 | 547 | COc1cc(F)cc(-c2cncc3[nH]c(-c4n[nH]c5cnc(-c6cncc(NC(=O)CC(C)C)c6)cc45)nc23)c1 [Compound 1324, N-(5-(3-(7-(3-Fluoro-5-methoxyphenyl)-3H-imidazo[4,5-c]pyridin-2-yl)-1H-pyrazolo[3,4-c]pyridin-5-yl)pyridin-3-yl)-3-methylbutanamide] | ≤ 9
21 | 512 | CN(C)CC(=O)Nc1cncc(-c2cc3c(-c4nc5c(-c6cccc(F)c6)cncc5[nH]4)n[nH]c3cn2)c1 [Compound 1367, 2-(Dimethylamino)-N-(5-(3-(7-(3-fluorophenyl)-3H-imidazo[4,5-c]pyridin-2-yl)-1H-pyrazolo[3,4-c]pyridin-5-yl)pyridin-3-yl)acetamide] | 144

Row | SMILES | IC50 [2] [nM] | EC50 [1] [nM]
22 | Fc1cccc(-c2cncc3[nH]c(-c4n[nH]c5cnc(C6=CCNCC6)cc45)nc23)c1 [Compound 886, 3-(7-(3-Fluorophenyl)-3H-imidazo[4,5-c]pyridin-2-yl)-5-(1,2,3,6-tetrahydropyridin-4-yl)-1H-pyrazolo[3,4-c]pyridine] | 1940 | 72
